Results on three compounds are retold here after ChEMBL document CHEMBL1765029, “Synthesis and biological evaluation of estradiol linked pyrrolo[2,1-c][1,4]benzodiazepine (PBD) conjugates as potential anticancer agents” (2011).

Structures are written as SMILES. Some results are limits rather than exact numbers.

Tested on in one test: not listed separately
Briefly: Cytotoxicity against human DWD cells by sulforhodamine B method. Type of test: functional.
Turning to `COc1cc2c(cc1OCCCN1CCN(CCCOc3ccc4c(c3)CC[C@@H]3[C@@H]4CC[C@]4(C)[C@@H](O)CC[C@@H]34)CC1)N=C[C@@H]1CC(F)(F)CN1C2=O`, the GI50 (commonly the concentration at which growth is held to half of that of the control) came out at 100 nM.
Consider `COc1cc2c(cc1OCCCCCOc1ccc3c(c1)CC[C@@H]1[C@@H]3CC[C@]3(C)[C@@H](O)CC[C@@H]13)N=C[C@@H]1C[C@@H](F)CN1C2=O`, for which the concentration for 50% growth inhibition (GI50) was determined as 1900 nM.
`COc1cc2c(cc1OCCCOc1ccc3c(c1)CC[C@@H]1[C@@H]3CC[C@]3(C)[C@@H](O)CC[C@@H]13)N=C[C@@H]1CCCN1C2=O` yielded a GI50 of 170 nM.

In a further test the test system is A549. Description: Cytotoxicity against human A549 cells by sulforhodamine B method. It is filed as functional. (In SRB staining, fixed cells bind dye roughly in proportion to their protein.)
Take `COc1cc2c(cc1OCCCN1CCN(CCCOc3ccc4c(c3)CC[C@@H]3[C@@H]4CC[C@]4(C)[C@@H](O)CC[C@@H]34)CC1)N=C[C@@H]1CC(F)(F)CN1C2=O`: the GI50 was found to be 120 nM. This counts as sub-micromolar.
As for `COc1cc2c(cc1OCCCCCOc1ccc3c(c1)CC[C@@H]1[C@@H]3CC[C@]3(C)[C@@H](O)CC[C@@H]13)N=C[C@@H]1C[C@@H](F)CN1C2=O`, the GI50 stood at 180 nM.
Compound `COc1cc2c(cc1OCCCOc1ccc3c(c1)CC[C@@H]1[C@@H]3CC[C@]3(C)[C@@H](O)CC[C@@H]13)N=C[C@@H]1CCCN1C2=O` showed a GI50 of 2100 nM.

The next test relates to HOP-62. Description: Cytotoxicity against human HOP62 cells by sulforhodamine B method. It is filed as functional.
Take `COc1cc2c(cc1OCCCN1CCN(CCCOc3ccc4c(c3)CC[C@@H]3[C@@H]4CC[C@]4(C)[C@@H](O)CC[C@@H]34)CC1)N=C[C@@H]1CC(F)(F)CN1C2=O`: the 50% growth inhibitory concentration (GI50) came out at 150 nM. In other words, the sub-micromolar range.
`COc1cc2c(cc1OCCCCCOc1ccc3c(c1)CC[C@@H]1[C@@H]3CC[C@]3(C)[C@@H](O)CC[C@@H]13)N=C[C@@H]1C[C@@H](F)CN1C2=O` showed a GI50 of 190 nM.
In the case of `COc1cc2c(cc1OCCCOc1ccc3c(c1)CC[C@@H]1[C@@H]3CC[C@]3(C)[C@@H](O)CC[C@@H]13)N=C[C@@H]1CCCN1C2=O`, the GI50 is 2230 nM.

Another test has as its system SiHa. Briefly: Cytotoxicity against human SiHa cells by sulforhodamine B method. Type of test: functional.
`COc1cc2c(cc1OCCCN1CCN(CCCOc3ccc4c(c3)CC[C@@H]3[C@@H]4CC[C@]4(C)[C@@H](O)CC[C@@H]34)CC1)N=C[C@@H]1CC(F)(F)CN1C2=O` gave a GI50 of 160 nM.
Compound `COc1cc2c(cc1OCCCCCOc1ccc3c(c1)CC[C@@H]1[C@@H]3CC[C@]3(C)[C@@H](O)CC[C@@H]13)N=C[C@@H]1C[C@@H](F)CN1C2=O` returned a concentration for 50% growth inhibition (GI50) of 2310 nM.
The compound `COc1cc2c(cc1OCCCOc1ccc3c(c1)CC[C@@H]1[C@@H]3CC[C@]3(C)[C@@H](O)CC[C@@H]13)N=C[C@@H]1CCCN1C2=O` registered a GI50 of 2120 nM. This GI50 and that of the compound before are within 1.5-fold of each other.

The next test relates to KB. Description: Cytotoxicity against human KB cells by sulforhodamine B method. It is filed as functional.
In the case of `COc1cc2c(cc1OCCCN1CCN(CCCOc3ccc4c(c3)CC[C@@H]3[C@@H]4CC[C@]4(C)[C@@H](O)CC[C@@H]34)CC1)N=C[C@@H]1CC(F)(F)CN1C2=O`, the GI50 was 170 nM.
In the case of `COc1cc2c(cc1OCCCCCOc1ccc3c(c1)CC[C@@H]1[C@@H]3CC[C@]3(C)[C@@H](O)CC[C@@H]13)N=C[C@@H]1C[C@@H](F)CN1C2=O`, the GI50 was determined as 2170 nM.
On to `COc1cc2c(cc1OCCCOc1ccc3c(c1)CC[C@@H]1[C@@H]3CC[C@]3(C)[C@@H](O)CC[C@@H]13)N=C[C@@H]1CCCN1C2=O`, for which halving of growth (GI50) required 2110 nM.

The subject of another test is PC-3. Briefly: Cytotoxicity against human PC3 cells by sulforhodamine B method. It is filed as functional.
`COc1cc2c(cc1OCCCN1CCN(CCCOc3ccc4c(c3)CC[C@@H]3[C@@H]4CC[C@]4(C)[C@@H](O)CC[C@@H]34)CC1)N=C[C@@H]1CC(F)(F)CN1C2=O` had a 50% growth inhibitory concentration (GI50) of 130 nM.
The compound `COc1cc2c(cc1OCCCCCOc1ccc3c(c1)CC[C@@H]1[C@@H]3CC[C@]3(C)[C@@H](O)CC[C@@H]13)N=C[C@@H]1C[C@@H](F)CN1C2=O` came in with a GI50 of 190 nM.
As for `COc1cc2c(cc1OCCCOc1ccc3c(c1)CC[C@@H]1[C@@H]3CC[C@]3(C)[C@@H](O)CC[C@@H]13)N=C[C@@H]1CCCN1C2=O`, halving of growth (GI50) required 2080 nM.

The test system of the next test is COLO 205. Briefly: Cytotoxicity against human COLO205 cells by sulforhodamine B method. It is filed as functional.
In the case of `COc1cc2c(cc1OCCCN1CCN(CCCOc3ccc4c(c3)CC[C@@H]3[C@@H]4CC[C@]4(C)[C@@H](O)CC[C@@H]34)CC1)N=C[C@@H]1CC(F)(F)CN1C2=O`, growth was halved (GI50) at 140 nM.
`COc1cc2c(cc1OCCCCCOc1ccc3c(c1)CC[C@@H]1[C@@H]3CC[C@]3(C)[C@@H](O)CC[C@@H]13)N=C[C@@H]1C[C@@H](F)CN1C2=O` registered a GI50 of 170 nM. The GI50 values of the last two compounds are within 1.5-fold of each other.
Consider `COc1cc2c(cc1OCCCOc1ccc3c(c1)CC[C@@H]1[C@@H]3CC[C@]3(C)[C@@H](O)CC[C@@H]13)N=C[C@@H]1CCCN1C2=O`, for which growth was halved (GI50) at 160 nM.

In a further test the test system is MCF7. Briefly: Cytotoxicity against human MCF7 cells by sulforhodamine B method. Type of test: functional.
As for `COc1cc2c(cc1OCCCN1CCN(CCCOc3ccc4c(c3)CC[C@@H]3[C@@H]4CC[C@]4(C)[C@@H](O)CC[C@@H]34)CC1)N=C[C@@H]1CC(F)(F)CN1C2=O`, the GI50 was < 100 nM.
In turn, `COc1cc2c(cc1OCCCCCOc1ccc3c(c1)CC[C@@H]1[C@@H]3CC[C@]3(C)[C@@H](O)CC[C@@H]13)N=C[C@@H]1C[C@@H](F)CN1C2=O` gave a GI50 of 150 nM. That is a sub-micromolar value.
Consider `COc1cc2c(cc1OCCCOc1ccc3c(c1)CC[C@@H]1[C@@H]3CC[C@]3(C)[C@@H](O)CC[C@@H]13)N=C[C@@H]1CCCN1C2=O`, for which the GI50 stood at 170 nM.

Tested on in the next test: not listed separately
Briefly: Cytotoxicity against human Gurav cells by sulforhodamine B method. Type of test: functional.
In turn, `COc1cc2c(cc1OCCCN1CCN(CCCOc3ccc4c(c3)CC[C@@H]3[C@@H]4CC[C@]4(C)[C@@H](O)CC[C@@H]34)CC1)N=C[C@@H]1CC(F)(F)CN1C2=O` yielded a GI50 of 130 nM. This lies in the sub-micromolar range.
On to `COc1cc2c(cc1OCCCCCOc1ccc3c(c1)CC[C@@H]1[C@@H]3CC[C@]3(C)[C@@H](O)CC[C@@H]13)N=C[C@@H]1C[C@@H](F)CN1C2=O`, for which the GI50 is 180 nM.
For the compound `COc1cc2c(cc1OCCCOc1ccc3c(c1)CC[C@@H]1[C@@H]3CC[C@]3(C)[C@@H](O)CC[C@@H]13)N=C[C@@H]1CCCN1C2=O`, it took 2050 nM to inhibit growth by half (GI50).

The next test deals with ZR-75-1. Briefly: Cytotoxicity against human ZR-75-1 cells by sulforhodamine B method. Type of test: functional.
On to `COc1cc2c(cc1OCCCN1CCN(CCCOc3ccc4c(c3)CC[C@@H]3[C@@H]4CC[C@]4(C)[C@@H](O)CC[C@@H]34)CC1)N=C[C@@H]1CC(F)(F)CN1C2=O`, for which growth was halved (GI50) at 120 nM.
`COc1cc2c(cc1OCCCCCOc1ccc3c(c1)CC[C@@H]1[C@@H]3CC[C@]3(C)[C@@H](O)CC[C@@H]13)N=C[C@@H]1C[C@@H](F)CN1C2=O`: growth was halved (GI50) at 170 nM.
On to `COc1cc2c(cc1OCCCOc1ccc3c(c1)CC[C@@H]1[C@@H]3CC[C@]3(C)[C@@H](O)CC[C@@H]13)N=C[C@@H]1CCCN1C2=O`, for which the GI50 came out at 1190 nM.

Another test concerns A2780. Briefly: Cytotoxicity against human A2780 cells by sulforhodamine B method. Type of test: functional.
`COc1cc2c(cc1OCCCN1CCN(CCCOc3ccc4c(c3)CC[C@@H]3[C@@H]4CC[C@]4(C)[C@@H](O)CC[C@@H]34)CC1)N=C[C@@H]1CC(F)(F)CN1C2=O` came in with a concentration for 50% growth inhibition (GI50) of 110 nM.
`COc1cc2c(cc1OCCCCCOc1ccc3c(c1)CC[C@@H]1[C@@H]3CC[C@]3(C)[C@@H](O)CC[C@@H]13)N=C[C@@H]1C[C@@H](F)CN1C2=O` returned a GI50 of 190 nM.
In turn, `COc1cc2c(cc1OCCCOc1ccc3c(c1)CC[C@@H]1[C@@H]3CC[C@]3(C)[C@@H](O)CC[C@@H]13)N=C[C@@H]1CCCN1C2=O` displayed a GI50 of 1190 nM.
